Data reported in patent publication US11142526B2, “Spirocycle compounds and methods of making and using same” (H. Lundbeck A/S, priority 2017, dated 2021).

Molecular target: MAGL (Mus musculus (Mouse), UniProt O35678)
Assay: In vitro competitive activity-based protein profiling, mouse brain proteome
Format: biochemical
Conditions: for inhibition at 1 µM: mouse; for IC50: mouse brain

Chain of MAGL (O35678 whole entry): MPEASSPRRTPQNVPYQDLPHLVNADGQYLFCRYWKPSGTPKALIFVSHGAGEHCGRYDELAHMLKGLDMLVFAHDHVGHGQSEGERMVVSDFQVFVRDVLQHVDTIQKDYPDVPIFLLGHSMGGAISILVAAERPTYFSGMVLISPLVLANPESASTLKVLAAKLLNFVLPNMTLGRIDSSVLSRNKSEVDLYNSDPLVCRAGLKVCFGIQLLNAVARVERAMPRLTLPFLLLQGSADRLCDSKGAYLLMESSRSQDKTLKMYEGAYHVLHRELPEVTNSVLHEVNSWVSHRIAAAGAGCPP

SMILES	inhibition at 1 µM [%]	IC50 [µM]
Cc1ccc2[nH]c(C(=O)N3CCCC34CCN(C(=O)OC(C(F)(F)F)C(F)(F)F)CC4)cc2c1 [Example 14, 1,1,1,3,3,3-Hexafluoropropan-2-yl 1-(5-methyl-1H-indole-2-carbonyl)-1,8-diazaspiro[4.5]decane-8-carboxylate]	> 75	< 0.1
O=C(OC(C(F)(F)F)C(F)(F)F)N1CCC2(CCCN2Cc2c[nH]c3cccc(Cl)c23)CC1 [Example 45, 1,1,1,3,3,3-Hexafluoropropan-2-yl 1-((4-chloro-1H-indol-3-yl)methyl)-1,8-diazaspiro[4.5] decane-8-carboxylate]	–	0.1 to 1
Cc1ccc2cc(C(=O)N3CCCC34CCN(C(=O)OC(C(F)(F)F)C(F)(F)F)CC4)sc2c1 [Example 59, 1,1,1,3,3,3-Hexafluoropropan-2-yl 1-(6-methylbenzo[b]thiophene-2-carbonyl)-1,8-diazaspiro[4.5] decane-8-carboxylate]	> 75	–
O=C(OC(C(F)(F)F)C(F)(F)F)N1CCC2(CCCN2Cc2ccc3cc(Cl)ccc3n2)CC1 [Example 55, 1,1,1,3,3.3-Hexafluoropropan-2-yl 1-((6-chloroquinolin-2-yl)methyl)-1,8-diazaspiro[4.5] decane-8-carboxylate]	> 75	< 0.1
O=C(OC(C(F)(F)F)C(F)(F)F)N1CCC2(CCN(Cc3ncccn3)C2)CC1 [Example 65, 1,1,1,3,3,3-Hexafluoropropan-2-yl 2-(pyrimidin-2-ylmethyl)-2,8-diazaspiro[4.5] decane-8-carboxylate]	> 75	–
Cn1cc(C(=O)N2CCCC23CCN(C(=O)OC(C(F)(F)F)C(F)(F)F)CC3)cn1 [Example 70, 1,1,1,3,3,3-Hexafluoropropan-2-yl 1-(1-methyl-1H-pyrazole-4-carbonyl)-1,8-diazaspiro[4.5] decane-8-carboxylate]	> 75	0.1 to 1

More lines, now with the values ahead:

inhibition at 1 µM [%]	IC50 [µM]	SMILES
> 75	< 0.1	O=C(OC(C(F)(F)F)C(F)(F)F)N1CCC2(CCCN2C(=O)c2cc3ccccc3o2)CC1 [Example 83, 1,1,1,3,3,3-Hexafluoropropan-2-yl 1-(benzofuran-2-carbonyl)-1,8-diazaspiro[4.5] decane-8-carboxylate]
> 75	< 0.1	O=C(OC(C(F)(F)F)C(F)(F)F)N1CCC2(CCCN2C(=O)c2ccn(-c3ccccc3)n2)CC1 [Example 82, 1,1,1,3,3,3-Hexafluoropropan-2-yl 1-(1-phenyl-1H-pyrazole-3-carbonyl)-1,8-diazaspiro[4.5] decane-8-carboxylate]
> 75	< 0.1	O=C(OC(C(F)(F)F)C(F)(F)F)N1CCC2(CCCN2C(=O)c2cnn(-c3ccc(Cl)cc3)c2)CC1 [Example 78, 1,1,1,3,3,3-Hexafluoropropan-2-yl 1-(1-(4-chlorophenyl)-1H-pyrazole-4-carbonyl)-1,8-diazaspiro[4.5] decane-8-carboxylate]
> 75	< 0.1	O=C(OC(C(F)(F)F)C(F)(F)F)N1CCC2(CCCN2C(=O)c2cc3cc(F)ccc3[nH]2)CC1 [Example 107, 1,1,1,3,3,3-Hexafluoropropan-2-yl 1-(5-fluoro-1H-indole-2-carbonyl)-1,8-diazaspiro[4.5] decane-8-carboxylate]
> 75	< 0.1	O=C(OC(C(F)(F)F)C(F)(F)F)N1CCC2(CCCN2C(=O)c2cc3ccccc3s2)CC1 [Example 80, 1,1,1,3,3,3-Hexafluoropropan-2-yl 1-(benzo[b]thiophene-2-carbonyl)-1,8-diazaspiro[4.5] decane-8-carboxylate]
> 75	< 0.1	O=C(OC(C(F)(F)F)C(F)(F)F)N1CCC2(CCCN2C(=O)c2ccc3[nH]ccc3c2)CC1 [Example 89, 1,1,1,3,3,3-Hexafluoropropan-2-yl 1-(1H-indole-5-carbonyl)-1,8-diazaspiro[4.5] decane-8-carboxylate]
